From US10640506B2, “Cyclobutyl substituted pyrrolopyridine and pyrrolopyrimidines derivatives as JAK inhibitors” (Incyte Corporation, priority 2010, dated 2020)
Read-outs that look alike come from different tables or passages of the source.

How the values were obtained:
[1] = target: T1, JAK2 (a.a. 828-1132) (Homo sapiens, UniProt O60674); assay: In vitro JAK kinase assay (HTRF, phosphorylation of biotinylated peptide), JAK2; format: biochemical
T1 construct: JAK2 (a.a. 828-1132); His tag (N)
In short: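 HTRF detection (Eu-Py20, SA-APC, 40 min) of biotinylated-peptide phosphorylation, following a 1 hour room-temperature reaction quenched with 45 mM EDTA. Enzymes: insect-cell-expressed N-terminal His-tagged JAK1 (837-1142) and JAK2 (828-1132) catalytic domains. Activities reported in ranged categories.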

[2] = target: human JAK1 (a.a. 837-1142) (Homo sapiens, UniProt P23458); assay: In vitro JAK kinase assay (HTRF, phosphorylation of biotinylated peptide), JAK1; format: biochemical
In short: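 Phosphorylation of a biotinylated peptide was run at room temperature for 1 hour using the N-terminally His-tagged JAK1 kinase domain (837-1142) from insect cells. After an EDTA stop, Eu-Py20 and SA-APC gave an HTRF read; values are binned potency ranges.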

[3] = Table B, 1 mM ATP, read-out: JAK2 IC50
[4] = Table B, 1 mM ATP, read-out: JAK1 IC50
[5] = Table A, 1 mM ATP, read-out: JAK2 IC50
[6] = Table A, 1 mM ATP, read-out: JAK1 IC50

T1 sequence (O60674 828-1132): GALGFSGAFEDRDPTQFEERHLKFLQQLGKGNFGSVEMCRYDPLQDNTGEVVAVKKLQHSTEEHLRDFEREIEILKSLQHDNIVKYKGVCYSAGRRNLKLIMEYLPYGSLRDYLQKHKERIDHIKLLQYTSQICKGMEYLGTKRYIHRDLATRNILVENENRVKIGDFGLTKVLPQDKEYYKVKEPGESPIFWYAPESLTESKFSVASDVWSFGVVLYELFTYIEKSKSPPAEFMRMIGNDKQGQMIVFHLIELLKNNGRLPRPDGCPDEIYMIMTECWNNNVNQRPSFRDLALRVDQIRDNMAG
Chain of human JAK1 (a.a. 837-1142) (P23458 849-1154): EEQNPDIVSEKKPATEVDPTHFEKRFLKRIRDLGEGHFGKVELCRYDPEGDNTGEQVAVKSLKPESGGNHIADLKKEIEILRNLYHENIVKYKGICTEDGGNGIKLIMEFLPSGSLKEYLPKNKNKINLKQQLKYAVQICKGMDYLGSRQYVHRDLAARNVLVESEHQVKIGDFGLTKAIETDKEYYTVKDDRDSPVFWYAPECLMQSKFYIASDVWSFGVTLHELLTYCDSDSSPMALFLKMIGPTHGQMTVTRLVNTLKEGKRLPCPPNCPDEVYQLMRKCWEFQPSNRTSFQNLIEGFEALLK

Compound	IC50 ([1]; Table F, 1 mM ATP) [nM]	IC50 ([2]; Table F, 1 mM ATP) [nM]	also measured
CN(C)Cc1cc(C(=O)N2CCN([C@H]3C[C@](CC#N)(n4cc(-c5ncnc6[nH]ccc56)cn4)C3)CC2)cc(C(F)F)c1 [Example 74, {trans-3-(4-{3-(difluoromethyl)-5-[(dimethylamino)methyl]benzoyl}piperazin-1-yl)-1-[4-(7H-pyrrolo[2,3-d]pyrimidin-4-yl)-1H-pyrazol-1-yl]cyclobutyl}acetonitrile]	10 to 25	< 10	–
N#CC[C@]1(n2cc(-c3ncnc4[nH]ccc34)cn2)C[C@H](N2CCC(Oc3cc(CO)cc(C(F)(F)F)n3)CC2)C1 (single isomer, unassigned) [Example 123, {trans-3-(4-{[4-(hydroxymethyl)-6-(trifluoromethyl)pyridin-2-yl]oxy}piperidin-1-yl)-1-[4-(7H-pyrrolo[2,3-d]pyrimidin-4-yl)-1H-pyrazol-1-yl]cyclobutyl}acetonitrile]	> 100	< 10	–
CNC1(c2cc(C(=O)N3CCN([C@H]4C[C@](CC#N)(n5cc(-c6ncnc7[nH]ccc67)cn5)C4)CC3)nc(C(F)(F)F)n2)CCC1 [Example 70, {trans-3-(4-{[6-[1-(methylamino)cyclobutyl]-2-(trifluoromethyl)pyrimidin-4-yl]carbonyl}piperazin-1-yl)-1-[4-(7H-pyrrolo[2,3-d]pyrimidin-4-yl)-1H-pyrazol-1-yl]cyclobutyl}acetonitrile]	< 10	< 10	–
N#CC[C@]1(n2cc(-c3ncnc4[nH]ccc34)cn2)C[C@H](N2CCC(Oc3cc(CN4CC(O)C4)nc(C(F)(F)F)n3)CC2)C1 [Example 144, {trans-3-(4-{[6-[(3-hydroxyazetidin-1-yl)methyl]-2-(trifluoromethyl)pyrimidin-4-yl]oxy}piperidin-1-yl)-1-[4-(7H-pyrrolo[2,3-d]pyrimidin-4-yl)-1H-pyrazol-1-yl]cyclobutyl}acetonitrile]	> 100	10 to 25	–
N#CC[C@]1(n2cc(-c3ncnc4[nH]ccc34)cn2)C[C@H](N2CCN(C(=O)c3cc(F)cc(F)c3)CC2)C1 [Example 8b, {trans-3-[4-(3,5-difluorobenzoyl)piperazin-1-yl]-1-[4-(7H-pyrrolo[2,3-d]pyrimidin-4-yl)-1H-pyrazol-1-yl]cyclobutyl}acetonitrile]	–	–	IC50 [1, 3]: < 10 nM; IC50 [2, 4]: < 10 nM
N#CC[C@]1(n2cc(-c3ncnc4[nH]ccc34)cn2)C[C@@H](N2CCN(C(=O)c3ccnc(C(F)(F)F)n3)CC2)C1 [Example 7a, [cis-1-[4-(7H-pyrrolo[2,3-d]pyrimidin-4-yl)-1H-pyrazol-1-yl]-3-(4-{[2-(trifluoromethyl)pyrimidin-4-yl]carbonyl}piperazin-1-yl)cyclobutyl]acetonitrile]	–	–	IC50 [1, 5]: > 100 nM; IC50 [2, 6]: 10 to 25 nM
N#CC[C@]1(n2cc(-c3ncnc4[nH]ccc34)cn2)C[C@@H](N2CCC(Oc3cc(C#N)cc(C(F)(F)F)n3)CC2)C1 (single isomer, unassigned) [Example 133, 2-[(1-{cis-3-(cyanomethyl)-3-[4-(7H-pyrrolo[2,3-d]pyrimidin-4-yl)-1H-pyrazol-1-yl]cyclobutyl}piperidin-4-yl)oxy]-6-(trifluoromethyl)isonicotinonitrile]	> 100	25 to 100	–
N#CC[C@]1(n2cc(-c3ncnc4[nH]ccc34)cn2)C[C@@H](N2CCN(C(=O)c3ccc(Cl)cc3)CC2)C1 [Example 28, {cis-3-{4-[4-chlorobenzoyl]piperazin-1-yl}-1-[4-(7H-pyrrolo[2,3-d]pyrimidin-4-yl)-1H-pyrazol-1-yl]cyclobutyl}acetonitrile]	–	–	IC50 [1, 5]: 10 to 25 nM; IC50 [2, 6]: < 10 nM
N#CC[C@]1(n2cc(-c3ncnc4[nH]ccc34)cn2)C[C@@H](N2CCN(C(=O)NC3CCC3)CC2)C1 [Example 104, 4-{cis-3-(cyanomethyl)-3-[4-(7H-pyrrolo[2,3-d]pyrimidin-4-yl)-1H-pyrazol-1-yl]cyclobutyl}-N-cyclobutylpiperazine-1-carboxamide]	> 100	10 to 25	–
CC[C@H]1CCCN1C(=O)N1CCN([C@H]2C[C@](CC#N)(n3cc(-c4ncnc5[nH]ccc45)cn3)C2)CC1 [Example 5, {trans-3-(4-{[(2S)-2-ethylpyrrolidin-1-yl]carbonyl}piperazin-1-yl)-1-[4-(7H-pyrrolo[2,3-d]pyrimidin-4-yl)-1H-pyrazol-1-yl]cyclobutyl}acetonitrile]	–	–	IC50 [1, 3]: > 100 nM; IC50 [2, 4]: < 10 nM
N#CCC1(n2cc(-c3ncnc4[nH]ccc34)cn2)CC(N2CCC(Oc3cc(CCO)nc(C(F)(F)F)n3)CC2)C1 (single isomer, unassigned; peak 1) [Example 164, peak 1, {trans-3-(4-{[6-(2-hydroxyethyl)-2-(trifluoromethyl)pyrimidin-4-yl]oxy}piperidin-1-yl)-1-[4-(7H-pyrrolo[2,3-d]pyrimidin-4-yl)-1H-pyrazol-1-yl]cyclobutyl}acetonitrile]	–	–	IC50 ([1]; read-out: JAK2 IC50 (nM) at 1 mM ATP, Table F): > 100 nM; IC50 ([2]; read-out: JAK1 IC50 (nM) at 1 mM ATP, Table F, listed as 164, peak 1): 10 to 25 nM
N#CC[C@]1(n2cc(-c3ncnc4[nH]ccc34)cn2)C[C@H](N2CCN(C(=O)c3cc(C(=O)O)nc(C(F)(F)F)n3)CC2)C1 [Example 48, 6-[(4-{trans-3-(cyanomethyl)-3-[4-(7H-pyrrolo[2,3-d]pyrimidin-4-yl)-1H-pyrazol-1-yl]cyclobutyl}piperazin-1-yl)carbonyl]-2-(trifluoromethyl)pyrimidine-4-carboxylic acid]	> 100	10 to 25	–
CN(C)Cc1cc(C#N)cc(C(=O)N2CCN([C@H]3C[C@@](CC#N)(n4cc(-c5ncnc6[nH]ccc56)cn4)C3)CC2)c1 [Example 42, 3-[(4-{cis-3-(cyanomethyl)-3-[4-(7H-pyrrolo[2,3-d]pyrimidin-4-yl)-1H-pyrazol-1-yl]cyclobutyl}piperazin-1-yl)carbonyl]-5-[(dimethylamino)methyl]benzonitrile]	> 100	< 10	–
N#CC[C@]1(n2cc(-c3ncnc4[nH]ccc34)cn2)C[C@H](N2CCN(C(=O)c3cc(C4(N)CCC4)nc(C(F)(F)F)n3)CC2)C1 [Example 61, {trans-3-(4-{[6-(1-aminocyclobutyl)-2-(trifluoromethyl)pyrimidin-4-yl]carbonyl}piperazin-1-yl)-1-[4-(7H-pyrrolo[2,3-d]pyrimidin-4-yl)-1H-pyrazol-1-yl]cyclobutyl}acetonitrile]	< 10	< 10	–
N#CC[C@]1(n2cc(-c3ncnc4[nH]ccc34)cn2)C[C@@H](N2CCC(Oc3cc(CN4CCOC4=O)cc(C(F)(F)F)n3)CC2)C1 (single isomer, unassigned) [Example 165, peak 1, {cis-3-(4-{[4-[(2-oxo-1,3-oxazolidin-3-yl)methyl]-6-(trifluoromethyl)pyridin-2-yl]oxy}piperidin-1-yl)-1-[4-(7H-pyrrolo[2,3-d]pyrimidin-4-yl)-1H-pyrazol-1-yl]cyclobutyl}acetonitrile]	> 100	25 to 100	–
CCNCc1cc(C(=O)N2CCN([C@H]3C[C@](CC#N)(n4cc(-c5ncnc6[nH]ccc56)cn4)C3)CC2)nc(C(F)(F)F)n1 [Example 47, {trans-3-(4-{[6-[(Ethylamino)methyl]-2-(trifluoromethyl)pyrimidin-4-yl]carbonyl}piperazin-1-yl)-1-[4-(7H-pyrrolo[2,3-d]pyrimidin-4-yl)-1H-pyrazol-1-yl]cyclobutyl}acetonitrile]	25 to 100	< 10	–
CN(C)Cc1cc(C#N)cc(C(=O)N2CCN([C@H]3C[C@](CC#N)(n4cc(-c5ncnc6[nH]ccc56)cn4)C3)CC2)c1 [Example 136, 3-[(4-{trans-3-(cyanomethyl)-3-[4-(7H-pyrrolo[2,3-d]pyrimidin-4-yl)-1H-pyrazol-1-yl]cyclobutyl}piperazin-1-yl)carbonyl]-5-[(dimethylamino)methyl]benzonitrile]	25 to 100	< 10	–
C[C@H](NC(=O)N1CCN([C@H]2C[C@](CC#N)(n3cc(-c4ncnc5[nH]ccc45)cn3)C2)CC1)C1CC1 [Example 96, 4-{trans-3-(cyanomethyl)-3-[4-(7H-pyrrolo[2,3-d]pyrimidin-4-yl)-1H-pyrazol-1-yl]cyclobutyl}-N-[(1S)-1-cyclopropylethyl]piperazine-1-carboxamide]	25 to 100	< 10	–
